# Assay results as given in patent US11439615B2, “Lipoxin and lipoxin analogue mediated neuroprotection and treatments” (University Health Network, priority 2017, dated 2022).
# Key:
# [1] = test system: HT22 cells; assay: Glutamate challenge of HT22 neuronal cells, viability; format: cell-based; conditions: for efficacy of neuroprotection / EC50: HT22 cells exposed to glutamate stress, nonlinear regression; for EC50: Mus musculus, HT-22, n=3/point, read-out: EC50 of neuroprotection; for viability of glutamate challenged HT22 cells: increasing concentrations up to 500 nM, 5 mM glutamate
# Experimental: An in vitro assay to recapitulate key aspects of the acute KA model was established. In this case, unconcentrated ACM was applied to the glutamate sensitive neuronal cell line HT22 (66, 67). Glutamate challenge of 5 mM was titrated to induce 60-80% cell death (ie: 20-40% survival). […] The media was concentrated for proteomic analyses.
# LXA4 and LXB4 promote direct neuroprotective signaling. To the inventor's knowledge, a role for lipoxins as direct neuroprotective or neurotrophic factors has not been reported. Although their established anti-inflammatory actions extend to the CNS (29-32). However, it was hypothesized they may have indirect protective effects. In order to test whether the protective activity was direct or indirect, LXA4 or LXB4 was applied to neuronal cells in an established in vitro assay.
# There is no established receptor for LXB4. However, LXB4 shares structural homology with LXA4 and the DHA-derived resolving D2 (RvD2), which mediate their actions via FPR2 or GPR18 (74), respectively. Therefore, it was assessed whether specific receptor antagonists for FPR2 or GPR18 could block LXB4 mediated protection.
# As shown in FIG. 14 lipoxin neuroprotection is dose responsive. Dose responses were generated for LXA4 (open circles) and LXB4 (closed circles) in HT22 cells exposed to glutamate stress, followed by nonlinear regression analyses.
# [2] = test system: HT22 cells; assay: Mitosox mitochondrial oxidative stress in glutamate challenged HT22 cells; format: cell-based; conditions: 1 μM, HT22 cells challenged with glutamate, vs vehicle
# Experimental: HT22 cells challenged with glutamate were then assayed for mitochondrial oxidative stress using the Mitosox reagent, in combination with 1 μM LXA4, LXB4, and the LXA4 receptor ALX/FPR2 agonists Quinc-1 and Mmk-1.
# [3] = test system: dopaminergic SH-SY5Y cells; assay: Mitochondrial oxidative stress in SH-SY5Y cells challenged with paraquat; format: cell-based; conditions: paraquat (PQ) induced oxidative stress, vs vehicle
# [4] = test system: primary RGCs; assay: Primary RGCs under paraquat oxidative stress, cell and neurite survival; format: cell-based, rat; conditions: 1 μM, 24 hours of 30 μM PQ
# Experimental: FIG. 5D is a graph showing Mitotracker red signal which indicates protection from […] membrane potential with LXB4 treatment (n=3). FIG. 5E is a series of images showing primary RGCs labeled with β3-tubulin extend an extensive network of neurites that disintegrate dramatically after 24 hours of 30 μM PQ. […] (Scale bar indicates 20 μm, *p<0.05, **p<0.01, bars are S.E.M.).
# For astrocytes: Primary mature retinal astrocytes (RA) were isolated and cultured as previously described (46). Briefly, eyes were dissected out of adult Wistar rats and placed in ice-cold MEM-H17 media. Isolated retinas were digested by shaking in MEM-H17 containing papain and DNAse, followed by trituration to disperse cell-aggregates. When cultures reached confluence, the cells were placed on a rotating shaker for 6-8 hours to remove microglia and then re-plated. A glial-specific expression profile was confirmed by probing the cultures with a panel of glia microglia and neuronal markers (44). For RGCs: RGCs were purified using magnetic MicroBeads (Miltenyi Biotec, Germany) according to the manufacturer's protocol. Briefly; retinal cell suspensions were prepared from 8-10 day old rats and incubated with CD90.1 microbeads, and then carefully washed with DPBS/BSA buffer. The suspension was centrifuged at 130×g and the supernatant aspirated. Cells were then incubated with biotinylated depletion antibodies against microglia and endothelial cells. The labeled cell suspension was then incubated with magnetic Anti-Biotin MACSiBead™ Particles, and placed in a weak magnetic field. The pre-enriched cell suspension was centrifuged, and resuspended in fresh DPBS/BSA buffer and applied to a MACs MS separation column in the presence of a strong magnetic field to select for CD90.1-bound RGCs. To increase RGC purity, the eluted fraction was enriched over a second column. Purified RGCs were eluted and plated on poly-D-lysine coated dishes. The cells were cultured in Neurobasal-A media (Gibco) supplemented with 2% calf serum, B27, L-glutamine, BDNF, CNTF, forskolin and pen/strep.
# [5] = test system: retinal ganglion cell (RGC); assay: Mouse chronic glaucoma model (circumlimbal suture ocular hypertension); format: in vivo; conditions: 0.1 μg/μL locally and systemically every other day from week 5, n=10; for loss of RGC (RBPMS flatmount counts): end of 12 weeks; for reduction of RGC function (pSTR) / reduction of retinal nerve fiber layer (RNFL) thickness: week 12
# Experimental: LXA4 and LXB4 treatment were assessed and found to be efficacious in a mouse chronic glaucoma model. Chronic ocular hypertension was induced in weaned male C57BL/6 mice using a monocular circumlimbal suture. From week 5, they were treated with either PBS vehicle, LXA4 or LXB4 (0.1 μg/μL, locally and systemically, every other day) (shaded areas). Retinal function (electroretinogram) and structure (optical coherence tomography) were measured weekly in all groups for 12 weeks. At the end of 12 weeks, animals were euthanized and retinal ganglion cell (RGC) counts were analyzed on retinal flatmounts by RBPMS immunostaining. […] (n=10 per group, bars represent S.E.M.).
Structure (SMILES),efficacy of neuroprotection [1],EC50 [1] [nM],viability of glutamate challenged HT22 cells [1],mitochondrial oxidative stress (Mitosox) [2],mitochondrial oxidative stress / mitochondria stabilisation [3],RGC survival following oxidative stress [4],loss of RGC (RBPMS flatmount counts) [5] [%],reduction of RGC function (pSTR) [5] [%],reduction of retinal nerve fiber layer (RNFL) thickness [5] [%],RGC neurite degeneration following PQ challenge [4]
"CCCCC[C@H](O)/C=C/C=C\C=C\C=C\[C@@H](O)[C@@H](O)CCCC(=O)O [LXA4, 5S,6R,15S-trihydroxy-7E,9E,11Z,13E-eicosatetraenoic acid]",0.89,631,significantly increased viability,reduce mitochondrial oxidative stress,stabilize mitochondria,significant rescue,−14.1±1.0,−24.0±1.3,−23.8±1.6,
"CCCCC[C@H](O)[C@H](O)/C=C/C=C/C=C\C=C\[C@@H](O)CCCC(=O)O [LXB4, 5S,14R,15S-trihydroxy-6E,8Z,10E,12E-eicosatetraenoic acid]",0.81,39.2,significantly increased viability,reduce mitochondrial oxidative stress,stabilize mitochondria,significant rescue,−12.2±0.9,−20.9±1.0,−20.9±1.0,significantly rescued
